What was measured:
[1] = Two-phase decay model of heart TAC (blood pharmacokinetics); assay type: in vivo, male nude mice; conditions: mice, tail vein
Text: The PET images were reconstructed using the Maximum Likelihood Expectation Maximization method with 12 iterations. The CT images were reconstructed using the Filtered Back Projection method. Scatter, randoms, decay, and attenuation corrections were applied through the Albira software. Volumes-of-interest (VOIs) were drawn for the major organs on the decay-corrected PET images using PMOD, and injected doses were used to calculate percent of injected dose per cubic centimeter of tissue (%ID/cc). Errors in the averaged %ID/cc were reported as standard error of the mean (SEM). A non-linear regression analysis of the dynamic PET data for both C60-[^64Cu]Cu(NOTA) and [^64Cu]Cu(NOTA) was performed and fitted to a two-phase decay model to determine the blood half-life of each compound.
We also performed a non-linear regression analysis of the heart TAC data of both compounds using a two-phase decay model, which produced a p value of < 0.0001 by an extra sum-of-squares F test. The two-phase decay model consists of a distribution phase and an elimination phase. The fast distribution phase describes the rapid circulation of the material from the plasma to highly-perfused tissues, and the slow elimination phase describes the clearance of the material from the plasma and tissues through excretion. From this analysis, a blood half-life (t1/2) and rate constants (α, β) for each phase were determined along with the clearance rate (CL) and the area under the curve (AUC), which represents a normalized volume of distribution (Table 1).

[2] = PET/CT biodistribution in mice; assay type: in vivo, male nude mice
Protocol: PET and CT scans were performed using a small animal Albira PET/SPECT/CT scanner (Bruker Corporation, Billerica, MA, USA). PET images were analyzed using PMOD Version 3.505 (PMOD Technologies Ltd., Zürich, Switzerland). PET/CT maximum intensity projections were constructed using Inveon Research Workplace (Siemens Medical Solutions USA, Inc., Malvern, PA, USA). Statistical analysis was performed on GraphPad Prism 8 (GraphPad Software, San Diego, CA, USA).
PET Image Acquisition: All mice were manipulated in accordance to the MD Anderson Cancer Center’s IACUC guidelines. Mice were anesthetized with 2% isoflurane using oxygen as a carrier. For both C60-[^64Cu]Cu(NOTA) and [^64Cu]Cu(NOTA), 6 male nude mice were injected on the bed with ~200 μCi of activity in 150 μL of saline through a tail vein catheter. At the start of injection, a 20-min dynamic PET scan was acquired using the Albira PET/SPECT/CT scanner with a 15 cm field of view (FOV). The actual injected dose was calculated by measuring the pre- and post-injection activity in the syringe using a CRC-15R dose calibrator (Capintec, Inc., Florham Park, NJ, USA). The data were binned into 20-s time frames for the first 5 min, 60-s frames for the next 5 min, and 5-min frames for the next 10 min. Static PET images were then recorded at 3 h and 24 h post-injection (p.i.) for 10 min. A static PET image at 48 h p.i. was recorded for 20 min for C60-[^64Cu]Cu(NOTA) only. Following all PET scans, two 3 min CT scans were performed to cover the whole mouse body with a total FOV of 12.6 cm (400 μA, 45 kV, 250 projections).
The PET images were reconstructed using the Maximum Likelihood Expectation Maximization method with 12 iterations. The CT images were reconstructed using the Filtered Back Projection method. Scatter, randoms, decay, and attenuation corrections were applied through the Albira software. Volumes-of-interest (VOIs) were drawn for the major organs on the decay-corrected PET images using PMOD, and injected doses were used to calculate percent of injected dose per cubic centimeter of tissue (%ID/cc). […]

Area under Curve (AUC) [1]: 3.173 × 10^2 %ID·min/cc | Distribution Half-Life [1]: 0.4975 min | Distribution Rate Constant (α) [1]: 1.393 min⁻¹ | Elimination Half-Life [1]: 8.153 min | Elimination Rate Constant (β) [1]: 0.08501 min⁻¹ | period in which most of the material was cleared by renal excretion ([2]; PET): between 20 min and 3 h p.i. | uptake / detected signal at 48 h p.i. ([2]; PET static scan, 48 h p.i., any organ): negligible | uptake in the kidneys compared to other major organs ([2]; PET, 20 min p.i.): significant uptake
SMILES: O=C([O-])CN1CCN(CC(=O)[O-])CCN(CC(=O)O)CC1.[64Cu+2] [[^64Cu]Cu(NOTA)]

Source: PMC7023239, “Evaluation of the Biodistribution of Serinolamide-Derivatized C60 Fullerene” (Nanomaterials, 2020)
